For this test, the system named is recombinant rabies virus 1088 strain expressing Gaussia Luciferase (GLuc) (1088/GLuc). The class given is cell-based.

Read-outs that look alike come from different tables or passages of the source.

Regarding `CCN1C[C@@H]2[C@H]3CN(CC(C)C)[C@@H]2[C@@H](Cc2ccccc2)[C@]1(C(=O)NCc1ccccc1)C3` (relative stereo) [IF-69], the IC50 is 10 to 30 µM (read-out: Anti-rabies activity) and 16.5 µM (read-out: IC50). As for `CC(C)C[C@@H]1[C@@H]2[C@@H]3CN[C@@]1(C(=O)NCc1cccc4ccccc14)C[C@@H]3CN2CC(N)=O` (relative stereo) [IF-81], where the note is “read-out: Anti-rabies activity”, the IC50 was in the range of 10 to 30 µM. As to `NC(=O)CN1C[C@H]2C[C@]3(C(=O)NCc4cccc5ccccc45)NC[C@H]2[C@H]1[C@H]3Cc1ccccc1` (relative stereo) [IF-82], the IC50 (read-out: Anti-rabies activity) lay in the range of 10 to 30 µM. Still for that read-out and setting: to `CC(C)CC[C@@H]1[C@@H]2[C@@H]3CN[C@@]1(C(=O)NCc1cccc4ccccc14)C[C@@H]3CN2CC(N)=O` (relative stereo) [IF-84] belongs 10 to 30 µM; to `NC(=O)CN1C[C@H]2C[C@]3(C(=O)NCc4cccc5ccccc45)NC[C@H]2[C@H]1[C@H]3CCc1ccccc1` (relative stereo) [IF-85], 10 to 30 µM; to `CC(C)CC[C@@H]1[C@@H]2[C@@H]3CN[C@@]1(C(=O)NCc1ccc(F)cc1)C[C@@H]3CN2CC(N)=O` (relative stereo) [IF-95], 10 to 30 µM.

On to `NC(=O)CN1C[C@H]2C[C@]3(C(=O)NCc4ccc(F)cc4)NC[C@H]2[C@H]1[C@H]3Cc1cccc2ccccc12` (relative stereo) [IF-97], for which, under “read-out: Anti-rabies activity”, the IC50 is 10 to 30 µM. As to `CCCCCCNC(=O)[C@@]12C[C@@H]3CN(CC(N)=O)[C@@H]([C@@H]3CN1)[C@H]2CCc1ccccc1` (relative stereo) [IF-109], the IC50 (read-out: Anti-rabies activity) lay within 10 to 30 µM.

`CCCCCCNC(=O)[C@@]12C[C@@H]3CN(CC(N)=O)[C@@H]([C@@H]3CN1)[C@H]2Cc1cccc2ccccc12` (relative stereo) [IF-110]: the IC50 (read-out: Anti-rabies activity) is less than 5 µM. Turning to `NC(=O)CN1C[C@H]2C[C@]3(C(=O)NCc4ccc(O)cc4)NC[C@H]2[C@H]1[C@H]3Cc1cccc2ccccc12` (relative stereo) [IF-137], the IC50 (read-out: Anti-rabies activity) was less than 5 µM.

For `CC(C)CNC(=O)[C@@]12C[C@@H]3CN(Cc4cccc5ccccc45)[C@@H]([C@@H]3CN1)[C@H]2CCCNC(=N)N` (relative stereo) [IF-235], under “read-out: Anti-rabies activity”, the IC50 lay within 10 to 30 µM. Regarding `N=C(N)NCCC[C@@H]1[C@@H]2[C@@H]3CN[C@@]1(C(=O)NCc1ccccc1)C[C@@H]3CN2Cc1cccc2ccccc12` (relative stereo) [IF-236], the IC50 (read-out: Anti-rabies activity) lay within 10 to 30 µM. With `N=C(N)NCCC[C@@H]1[C@@H]2[C@@H]3CN[C@@]1(C(=O)NCCO)C[C@@H]3CN2Cc1cccc2ccccc12` (relative stereo) [IF-239], under “read-out: Anti-rabies activity”, the IC50 lay in the range of 10 to 30 µM.

For the compound `CCCCCCNC(=O)[C@@]12C[C@@H]3CN(Cc4cccc5ccccc45)[C@@H]([C@@H]3CN1)[C@H]2CCCNC(=N)N` (relative stereo) [IF-243], the IC50 (read-out: Anti-rabies activity) was less than 5 µM. Turning to `CC(C)NC(=O)[C@@]12C[C@@H]3CN(Cc4cccc5ccccc45)[C@@H]([C@@H]3CN1)[C@H]2CCCNC(=N)N` (relative stereo) [IF-244], under “read-out: Anti-rabies activity”, the IC50 was less than 5 µM. The same measure, in the same setting: to `N=C(N)NCCC[C@@H]1[C@@H]2[C@@H]3CN[C@@]1(C(=O)NCc1ccc(F)cc1)C[C@@H]3CN2Cc1cccc2ccccc12` (relative stereo) [IF-245] belongs less than 5 µM; to `NC(=O)C[C@@H]1[C@@H]2[C@@H]3CN[C@@]1(C(=O)NCc1ccccc1)C[C@@H]3CN2CC1CCCCC1` (relative stereo) [IF-246], 10 to 30 µM. With `NC(=O)C[C@@H]1[C@@H]2[C@@H]3CN[C@@]1(C(=O)NCc1ccc(O)cc1)C[C@@H]3CN2CC1CCCCC1` (relative stereo) [IF-247], the IC50 (read-out: Anti-rabies activity) was 10 to 30 µM. For `NC(=O)C[C@@H]1[C@@H]2[C@@H]3CN[C@@]1(C(=O)NCCc1ccccc1)C[C@@H]3CN2CC1CCCCC1` (relative stereo) [IF-251], for the setting “read-out: Anti-rabies activity”, the IC50 was in the range of 10 to 30 µM. Same read-out and setting: under `CCCCCCNC(=O)[C@@]12C[C@@H]3CN(CC4CCCCC4)[C@@H]([C@@H]3CN1)[C@H]2CCCNC(=N)N` (relative stereo) [IF-260] stands 10 to 30 µM; under `CC(C)CNC(=O)[C@@]12C[C@@H]3CN(Cc4ccc(F)cc4)[C@@H]([C@@H]3CN1)[C@H]2CC(N)=O` (relative stereo) [IF-262], less than 5 µM.
